Measurements taken from patent US20140142333A1, “NOVEL ANILINE DERIVATIVES AND USE THEREOF” (NEOMICS Co, Ltd., priority 2011, published 2014).

Experiments:
[1] = molecular target: T1, AIMP2-DX2 (Homo sapiens, UniProt Q13155); experiment: luciferase assay of pGL-DX-2 transfected A549 cells; details: luciferase activity 4 hours after compound treatment; N.C (DMSO) 20089; lower = inhibition
T1 sequence (Q13155 1-251 isoform Q13155-2): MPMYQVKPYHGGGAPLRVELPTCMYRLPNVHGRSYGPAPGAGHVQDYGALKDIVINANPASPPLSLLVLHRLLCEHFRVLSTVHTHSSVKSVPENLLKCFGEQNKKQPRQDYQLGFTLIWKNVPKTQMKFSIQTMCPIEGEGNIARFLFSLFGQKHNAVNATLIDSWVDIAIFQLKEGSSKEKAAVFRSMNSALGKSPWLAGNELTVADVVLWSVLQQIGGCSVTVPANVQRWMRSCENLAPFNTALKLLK

[2] = molecular target: T1, AIMP2-DX2; experiment: luciferase assay of pGL-DX-2 transfected H460 cells; details: luciferase activity 4 hours after compound treatment; N.C (DMSO) 8627; lower = inhibition
Method: In order to screen for a compound specifically inhibiting the activity of AIMP2-DX2, from a compound library bought from ChemDive (US), the inventors' transfected lung cancer cell line, H460, with pGL2-DX2 (see FIG. 2). After culturing the cell line for 24 hours, they treated it with a compound. Then, after further culturing for 4 hours, luciferase activity was measured through a luciferase assay kit according to a manufacturer protocol (Promega, US), by using a luminometer.
After further culturing for 4 hours, luciferase activity was measured.

| SMILES | AIMP2-DX2 activity in A549 cells [1] | AIMP2-DX2 activity in H460 cells [2] |
| --- | --- | --- |
| Cc1ccc(NC(=O)/C=C/C(=O)Nc2ccc(C)c(C)c2)cc1C [compound 1, N1,N4-bis(3,4-dimethylphenyl)fumaramide] | 14179 | 7101 |
| Cc1cccc(NC(=O)/C=C/C(=O)Nc2cccc(C)c2)c1 [compound 2, N1,N4-di-m-tolylfumaramide] | 14072 | 7292 |
| Cc1ccc(C)c(NC(=O)/C=C\C(=O)Nc2ccc(C)c(C)c2)c1 [compound 3, N1-(2,5-dimethylphenyl)-N4-(3,4-dimethylphenyl)maleamide] | 10043 | 7749 |
| Cc1cccc(NC(=O)/C=C\C(=O)Nc2cccc(C)c2)c1 [compound 4, N1,N4-di-m-tolylmaleamide] | 9605 | 8189 |
| Cc1ccc(NC(=O)/C=C\C(=O)Nc2ccc(F)cc2C)cc1C [compound 5, N1-(3,4-dimethylphenyl)-N4-(4-fluoro-2-methylphenyl)maleamide] | 9643 | 7427 |
| Cc1ccc(NC(=O)/C=C\C(=O)Nc2ccc(C)c(F)c2)cc1C [compound 6, N1-(3,4-dimethylphenyl)-N4-(3-fluoro-4-methylphenyl)maleamide] | 10551 | 8901 |
| Cc1ccc(NC(=O)/C=C\C(=O)Nc2cc(Cl)cc(Cl)c2)cc1C [compound 7, N1-(3,5-dichlorophenyl)-N4-(3,4-dimethylphenyl)maleamide] | 8268 | 5019 |
| Cc1ccc(C)c(NC(=O)/C=C\C(=O)O)c1 [compound 8, (Z)-4-[(2,5-dimethylphenyl)amino]-4-oxobut-2-enoic acid] | 6705 | 7648 |
| Cc1cc(C)cc(NC(=O)/C=C\C(=O)O)c1 [compound 9, (Z)-4-[(3,5-dimethylphenyl)amino]-4-oxobut-2-enoic acid] | 6786 | 7064 |
| CCCCc1ccc(NC(=O)/C=C\C(=O)O)cc1 [compound 10, (Z)-4-[(4-butylphenyl)amino]-4-oxobut-2-enoic acid] | 12399 | 8045 |
| Cc1cccc(NC(=O)/C=C\C(=O)O)c1 [compound 11, (Z)-4-oxo-4-(m-tolylamino) but-2-enoic acid] | 6328 | 7143 |
| O=C(O)/C=C\C(=O)Nc1ccc(F)cc1 [compound 12, (Z)-4-[(4-fluorophenyl)amino]-4-oxobut-2-enoic acid] | 7937 | 7031 |
| O=C(O)/C=C\C(=O)Nc1cc(Cl)cc(Cl)c1 [compound 13, (Z)-4-[(3,5-dichlorophenyl)amino]-4-oxobut-2-enoic acid] | 8049 | 7855 |
| Cc1cc(Cl)cc(Cl)c1NC(=O)/C=C\C(=O)O [compound 14, (Z)-4-[(2,4-dichloro-6-methylphenyl)amino]-4-oxobut-2-enoic acid] | 240 | 230 |
| Cc1cc(C)cc(NC(=O)/C=C\C(=O)Nc2ccc(C)c(C)c2)c1 [compound 15, N1-(3,4-dimethylphenyl)-N4-(3,5-dimethylphenyl)maleamide] | 6981 | 8621 |
